Test results from patent publication EP4772520A1, “NOVEL PRODRUG-TYPE ANTICANCER AGENT TARGETING CANCER-SPECIFIC ENZYME ACTIVITY” (priority 2023, dated 2025).

Columns and labels:
SHP77-luc = assay: Tumor proliferation suppression test in small cell lung cancer orthotopic model; assay type: in vivo, mice; settings: 40 mg/kg i.v. twice a week for 4 weeks; for tumor growth (luciferin/luciferase luminescence): n = 6, vs Vehicle
Protocol: The tumor proliferation suppression effect of the developed prodrugs SN38-βGal and SN38-βGlcNAc in a small cell lung cancer model was evaluated. The model was created by orthotopically transplanting SHP77-luc in which luciferase was expressed in a small cell lung cancer cell line SHP77 relative to BALB/cAJcl-nu/nu into the lung. The Vehicle (DMSO administration) group, the SN38-βGal administration group, and the SN38-βGlcNAc administration group were n = 6, respectively. The administration form was intravenous administration (i.v.), and the dose was 40 mg/kg, and administration was performed twice a week for 4 weeks. The tumor burden was evaluated by the luciferin/luciferase luminescence value.
A specific procedure of the therapeutic experiment is shown below. • (1) Model mice were created by the following procedure using 20 BALB/cAJcl-nu/nu (7 weeks old/female) mice. 150 to 200 µL of an anesthetic (a mixture of 3 kinds of Domitor + Betorphal + Mitazolam) was intraperitoneally administered to perform anesthesia. The skin of the left chest was incised, the subcutaneous tissue was detached, and then SHP77 luc cell suspension 2 × 10^7 cells/mL (50 µL, 5% Matrigel) was injected from the intercostal pleura to the left lung. The skin was sutured at 3 sites, and 150 to 200 µL of an anti-sedan (atipamezol) solution was intraperitoneally administered to check awakening of the mice. • (2) After 3 weeks, the formation of cancer was confirmed by luciferin/luciferase luminescence, and the administration of the drug was started. The drug was prepared by dissolving 200 mM of DMSO stock in PBS, and was administered from the tail vein in a total amount of 100 µL.3 mg (200 µL) of luciferin was intraperitoneally administered, and anesthetized with isoflurane. Thereafter, the luminescent value at 15 minutes after administration was measured by an in vivo imaging device. • (3) On the day of evaluation, the tumor burden was evaluated by the body weight and the luciferin/luciferase luminescence.

[1] = system: lung squamous carcinomas cell H226; assay: Cytotoxicity test by MTT assay method (H226 cells); assay type: cell-based; settings: for cytotoxicity in the presence of inhibitor: H226; for IC50: Homo sapiens, NCI-H226, 72 h, read-out: IC50 value
[2] = Single dose toxicity test 1 (intravenous); assay type: in vivo, Jcl: ICR mice (female); settings: for symptoms immediately after administration: 200 mg/kg intravenous, improved in several hours; for Survival rate (%) (after 10 days) / Survival rate (%) (just after administration): 200 mg/kg single intravenous administration, n=10; for LD50 at 240 h: mouse, in vivo, iv, single intravenous administration, estimated
Protocol: Single dose toxicity was evaluated by intravenously administering 200 mg/kg each of the novel prodrug-type anticancer agents SN38-βGal and SN38-βGlcNAc to Jcl: ICR mice (female).

[3] = system: luciferase-expressing A549 cells; assay: Therapeutic experiment 2 in A549 lung cancer orthotopic transplantation model; assay type: in vivo, mice; settings: i.v. 40 mg/kg 5 times then 80 mg/kg 7 times every other day; for tumor suppression effect (luciferin/luciferase chemiluminescence): vs Vehicle
Protocol: Using SN38-βGal and SN38-βGlcNAc, the dose was increased to verify the therapeutic effect in the lung cancer orthotopic transplantation model. Whether the tumor suppression effect was confirmed was evaluated as compared with the Vehicle group (DMSO administration) by separating the SN38-βGal and SN38-βGlcNAc administration groups. The evaluation was performed on luciferase-expressing A549 cell […] mice using BALB/cAJcl-nu/nu with n = 3 for the Vehicle group, n = 4 for the SN38-βGal group, and n = 5 for the SN38-βGlcNAc group. The administration form was intravenous administration (i.v.).
For administration, 40 mg/kg was administered 5 times in total every other day, and then 80 mg/kg was administered 7 times in total every other day. The tumor burden was determined by evaluating the luciferin/luciferase chemiluminescence value. The endpoint was a significant body weight loss (20% loss).
A specific procedure of the therapeutic experiment is shown below. • (1) Model mice were created by the following operation using BALB/cAJcl-nu/nu (7 weeks old). The skin of the chest was incised, and the skin was subcutaneously detached, then luciferase-expressing A549 cells 2 × 10^7 cells/mL (50 µL, 5% Matrigel) was injected from the intercostal pleura to the left lung. After injection, the skin was sutured. • (2) After 1 week, the formation of cancer was confirmed by luciferin/luciferase chemiluminescence, and the intravenous administration of the drug was started. The drug was prepared by dissolving a 200 mM of DMSO stock in PBS, and administered in a total amount of 100 µL. 3 mg (200 µL) of luciferin was administered by intraperitoneal administration, and anesthetized with isoflurane. Thereafter, the chemiluminescent value at 20 minutes after administration was measured by an in vivo imaging device. • (3) On the day of evaluation, the tumor burden was evaluated by luciferin/luciferase chemiluminescence. • (4) After completion of the treatment, HMRef-βGlcNAc, 5 mg/kg (100 µL PBS) was administered by intravenous administration. 30 minutes after administration, the sternum was incised, and the lungs were taken out. • (5) The cancer lesion was fluorescently imaged by an in vivo fluorescence imaging device, and comparison between the Vehicle and the administration group was performed.

[4] = Single dose toxicity test 2 (intravenous); assay type: in vivo, Jcl: ICR mice (female); settings: for Survival rate (%) (after 14 days) / Survival rate (%) (just after administration): n=10; for symptoms immediately after administration: SN38-βGal 300 mg/kg, SN38-βGlcNAc 500 mg/kg intravenous, improved in several hours; for LD50 at 336 h: mouse, in vivo, iv, single intravenous administration, estimated
Protocol: Single dose toxicity was evaluated by intravenously administering the novel prodrug-type anticancer agents SN38-βGal and SN38-βGlcNAc to Jcl: ICR mice (female). […] 500 mg/kg of SN38-βGlcNAc was intravenously administered.

SMILES	body weight (SHP77-luc)	tumor growth (luciferin/luciferase luminescence) (SHP77-luc)	cytotoxicity in the presence of inhibitor ([1]; inhibitor of β-galactosidase, N-(n-nonyl) deoxygalactonoijirimycin, 40 µM)	IC50 [1]	symptoms immediately after administration [2]	Survival rate (%) (after 10 days) [2]	Survival rate (%) (just after administration) [2]	LD50 at 240 h [2]	body weight [3]	tumor suppression effect (luciferin/luciferase chemiluminescence) [3]	Survival rate (%) (after 14 days) ([4]; 200 mg/kg intravenous)	Survival rate (%) (just after administration) ([4]; 200 mg/kg intravenous)	symptoms immediately after administration [4]	LD50 at 336 h [4]	cytotoxicity in the presence of inhibitor ([1]; 40 µM of inhibitor of β-hexosaminidase, PUGNAc)	Survival rate (%) (after 14 days) ([4]; 300 mg/kg intravenous)	Survival rate (%) (just after administration) ([4]; 300 mg/kg intravenous)	Survival rate (%) (after 14 days) ([4]; 500 mg/kg intravenous)	Survival rate (%) (just after administration) ([4]; 500 mg/kg intravenous)
CCc1c2c(nc3ccc(O[C@@H]4O[C@H](CO)[C@H](O)[C@H](O)[C@H]4O)cc13)-c1cc3c(c(=O)n1C2)COC(=O)[C@]3(O)CC [SN38-βGal]	no body weight loss was found during the treatment period	significant suppression of tumor growth was confirmed	cytotoxicity was significantly reduced	1.39 µM	reduced locomotor activity, tremor, and prone states were found in more than half of the mice in both groups	100%	100%	≥ 200 mg/kg	the body weight loss was not found in the first 2 weeks	the tumor growth was significantly suppressed in all mice	100%	100%	reduced locomotor activity and prone states were found in more than half of the mice in both groups	≥ 300 mg/kg	–	–	–	–	–
CCc1c2c(nc3ccc(O[C@@H]4O[C@H](CO)[C@@H](O)[C@H](O)[C@H]4NC(C)=O)cc13)-c1cc3c(c(=O)n1C2)COC(=O)[C@]3(O)CC [SN38-βGlcNAc]	no body weight loss was found during the treatment period	significant suppression of tumor growth was confirmed	–	1.5 µM	reduced locomotor activity, tremor, and prone states were found in more than half of the mice in both groups	100%	100%	≥ 200 mg/kg	the body weight loss was not found in the first 2 weeks	the tumor growth was significantly suppressed in all mice	100%	100%	reduced locomotor activity and prone states were found in more than half of the mice in both groups	≥ 500 mg/kg	cytotoxicity was significantly reduced	100%	100%	100%	100%
